# Measured values as given in US12084419B2, “Cell metabolism modulating compounds and uses thereof” (CRESCENTA BIOSCIENCES, priority 2020, dated 2024).
# Target: T1, His6 tagged human recombinant FABP4 (Homo sapiens, UniProt P15090)
# T1 construct: purchased Cayman Chemicals 10009549
# Test: FABP4 TR-FRET assay: displacement of BODIPY FL C12 fatty acid
# Conditions: triplicates, inhibition of BODIPY FL C12 binding; for inhibition at 1 µM: 1 μM compound; for inhibition at 10 µM: 10 μM compound
# In short: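 TR-FRET with a Tb anti-His6 antibody donor and BODIPY FL C12 as acceptor; compounds came from 0.362 and 0.0362 mM DMSO stocks. Protein (83 nM) and antibody (49.6 nM) solutions were premixed 30 min on ice in 25 mM Tris pH 7.4 with γ-globulins, NP-40 and DTT. Incubation was 10 min at room temperature; inhibition came from the 520/615 nm ratio.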
# T1 sequence (P15090 whole entry): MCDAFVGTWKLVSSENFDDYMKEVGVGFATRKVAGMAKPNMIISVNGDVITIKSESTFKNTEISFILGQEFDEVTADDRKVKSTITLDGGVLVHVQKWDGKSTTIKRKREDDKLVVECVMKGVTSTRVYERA
Compound,inhibition at 1 µM [%],inhibition at 10 µM [%]
"CCCCC1CCCc2c(n(Cc3cccc(C(N)=O)c3)c3c(C(=O)NCC(=O)O)cccc23)C1 (centres unmarked) [2-({7-butyl-5-[(3-carbamoylphenyl)methyl]-5H,6H,7H,8H,9H,10H-cyclohepta[b]indol-4-yl}formamido)acetic acid]",59,90.2
"CCC1CCCc2c1n(Cc1cccc(C(N)=O)c1)c1c(C(=O)O)cccc21 (centres unmarked) [9-[(3-carbamoylphenyl)methyl]-1-ethyl-2,3,4,9-tetrahydro-1H-carbazole-8-carboxylic acid]",90.3,95.9
"CCCCCCC1CCCc2c(n(Cc3cncc(C#N)c3)c3c(C(=O)O)cccc23)C1 (centres unmarked) [5-[(5-cyanopyridin-3-yl)methyl]-7-hexyl-5H,6H,7H,8H,9H,10H-cyclohepta[b]indole-4-carboxylic acid]",90.5,91.8
"CCCC1CCc2c(c3cccc(C(=O)O)c3n2Cc2cccc(C(N)=O)c2)C1 (centres unmarked) [9-[(3-carbamoylphenyl)methyl]-3-propyl-2,3,4,9-tetrahydro-1H-carbazole-8-carboxylic acid]",87.3,99.2
"CCCCC1CCCc2c1c1cccc(C(=O)O)c1n2Cc1cccc(C(N)=O)c1 (centres unmarked) [4-butyl-9-[(3-carbamoylphenyl)methyl]-2,3,4,9-tetrahydro-1H-carbazole-8-carboxylic acid]",43.3,83.4
"CCCCC1CCCc2c(n(Cc3cccc(C)c3)c3c(C(=O)O)cccc23)C1 (centres unmarked) [7-butyl-5-[(3-methylphenyl)methyl]-5H,6H,7H,8H,9H,10H-cyclohepta[b]indole-4-carboxylic acid]",94.8,91
"CCC1CCc2c1n(Cc1cccc(C(N)=O)c1)c1c(C(=O)O)cccc21 (centres unmarked) [4-[(3-carbamoylphenyl)methyl]-3-ethyl-1H,2H,3H,4H-cyclopenta[b]indole-5-carboxylic acid]",87.3,102
"CCC1CCc2c(c3cccc(C(=O)O)c3n2Cc2cccc(C#N)c2)C1 (centres unmarked) [9-[(3-cyanophenyl)methyl]-3-ethyl-2,3,4,9-tetrahydro-1H-carbazole-8-carboxylic acid]",45.8,90.3
"CCCCC1CCCc2c(n(Cc3cccnc3)c3c(C(=O)O)cccc23)C1 (centres unmarked) [7-butyl-5-[(pyridin-3-yl)methyl]-5H,6H,7H,8H,9H,10H-cyclohepta[b]indole-4-carboxylic acid]",71.6,83.8
"CCCCCCCCC1CCCc2c(n(Cc3cccc(C#N)c3)c3c(C(=O)O)cccc23)C1 (centres unmarked) [5-[(3-cyanophenyl)methyl]-7-octyl-5H,6H,7H,8H,9H,10H-cyclohepta[b]indole-4-carboxylic acid]",94.5,93
"CCCCCCC1CCc2c(n(Cc3ccc(C)cc3)c3c(C(=O)O)cccc23)C1 (centres unmarked) [2-hexyl-9-[(4-methylphenyl)methyl]-2,3,4,9-tetrahydro-1H-carbazole-8-carboxylic acid]",74.3,88.5
"CCCCC1CCCc2c(n(Cc3cccc(C(N)=O)c3)c3c(C(=O)O)cccc23)C1 (centres unmarked) [7-butyl-5-[(3-carbamoylphenyl)methyl]-5H,6H,7H,8H,9H,10H-cyclohepta[b]indole-4-carboxylic acid]",89.4,117
"CCCCCCC1CCCc2c(n(Cc3ccc(C)cc3)c3c(C(=O)O)cccc23)C1 (centres unmarked) [7-hexyl-5-[(4-methylphenyl)methyl]-5H,6H,7H,8H,9H,10H-cyclohepta[b]indole-4-carboxylic acid]",95.6,91.7
"CCCCCCC1CCCc2c(n(Cc3cccc(F)n3)c3c(C(=O)O)cccc23)C1 (centres unmarked) [5-[(6-fluoropyridin-2-yl)methyl]-7-hexyl-5H,6H,7H,8H,9H,10H-cyclohepta[b]indole-4-carboxylic acid]",86.5,91.8
"CCCCC1Cc2c(n(Cc3cccc(C#N)c3)c3c(C(=O)O)cccc23)C1 (centres unmarked) [2-butyl-4-[(3-cyanophenyl)methyl]-1H,2H,3H,4H-cyclopenta[b]indole-5-carboxylic acid]",62.1,85.1
"NC(=O)c1cccc(Cn2c3c(c4cccc(C(=O)O)c42)C(CCc2ccccc2)CCC3)c1 (centres unmarked) [9-[(3-carbamoylphenyl)methyl]-4-(2-phenylethyl)-2,3,4,9-tetrahydro-1H-carbazole-8-carboxylic acid]",44.1,77.9
"CCCCCOC1CCCc2c1n(Cc1cccc(C(N)=O)c1)c1c(C(=O)O)cccc21 (centres unmarked) [9-[(3-carbamoylphenyl)methyl]-1-(pentyloxy)-2,3,4,9-tetrahydro-1H-carbazole-8-carboxylic acid]",81.9,100
"CCCCCCC1CCCc2c(n(Cc3ccc4ocnc4c3)c3c(C(=O)O)cccc23)C1 (centres unmarked) [5-[(1,3-benzoxazol-5-yl)methyl]-7-hexyl-5H,6H,7H,8H,9H,10H-cyclohepta[b]indole-4-carboxylic acid]",–,88.5
